Data: patent publication US12540150B1, “Fluorogenic probe using a Mislow-Evans rearrangement for real-time imaging of hydrogen peroxide” (University of Pittsburgh—Of the Commonwealth System of …, priority 2020, dated 2026)
Where “and” joins values, the source holds several entries; their conditions need not be identical. Identical values can stand only once.

Key:
[1] = Selectivity of 1: reaction with ClO^−; conditions: for Fluorescence Intensity: pH 7, 25° C., 15 min
Procedure: Next, it was tested whether OCl^− and ONOO^− (peroxynitrite), would react with 1. A solution of 0, 1, 10, or 22 μM ONOO— in 0.3 M NaOH (20 μL) or 1, 10, 100, or 1000 μM NaOCl in water (20 μL) was added to the wells of a black 96-well plate. A solution of 10 μM 1 in DMSO (560 μL) and 5:95 MeCN/1.2 M phosphate pH 7 buffer (4.48 mL) was made; this solution (180 μL) was transferred to each of the wells. The samples were allowed to incubate at 25° C. for 15 min before the fluorescence was measured. […] This may be attributed to trace amounts of H2O2 in the ONOO^− solution.

[2] = Selectivity of 1: reaction with NO·; conditions: for Fluorescence: 15 min minus 0 min
Procedure: The probe 1 was also exposed to NO· at various concentrations. A NO· solution was generated by the addition of H2SO4 to NaNO2. A round-bottom flask containing a saturated solution of NaNO2 was connected to a series of three bubblers and one Erlenmeyer flask; the first two bubblers contained 30% NaOH, and the third contained ultrapure water. The flask contained ultrapure water (10 mL). The solutions were degassed with argon for 30 min. Then a 2 M solution of H2SO4 (1 mL) was added to the saturated NaNO2 to produce a 1.8 mM solution of NO· (assuming saturation at 25° C.) in the flask. A solution of 10 μM 1 in DMSO (20 μL) was added to 5:95 acetonitrile/50 mM pH 7 potassium phosphate buffer (160 μL). The NO· solution (20 μL) was then added to the mixture containing 1. The fluorescence was measured immediately and again after 15 min at 25° C. Similar results as the results for NO2^− and NO3^− were obtained for NO· (FIG. 22 and Table 13). The data in Table 13 is the fluorescence at 15 min minus the fluorescence at 0 min.

## Oc1ccc2c(c1)Oc1cc(O/C=C/C[Se]c3ccccc3)ccc1[C@@]21OCc2ccccc21 [Compound 1, (S,E)-6′-((3-(Phenylselanyl)prop-1-en-1-yl)oxy)-3H-spiro[isobenzofuran-1,9′-xanthen]-3′-ol]
[1]
  fluorescence change with increasing concentrations of OCl^−: No statistically significant increase in fluorescence intensity
[1]; 100 nM NaOCl
  Fluorescence Intensity: 33,503 and 25,413 and 28,088
[1]; 1.0 μM NaOCl
  Fluorescence Intensity: 28,551 and 25,590 and 33,211
[1]; 10 μM NaOCl
  Fluorescence Intensity: 41,611 and 35,271 and 35,308
[1]; 100 μM NaOCl
  Fluorescence Intensity: 46,362 and 40,070 and 41,695
[1]; no ROS
  Fluorescence Intensity: 30,591 and 24,478 and 26,025
[2]
  reaction with NO·: did not react
[2]; 0 μM NO· or H2O2, pH 7, 25° C.
  Fluorescence: 4,567 and 5,018 and 6,300
[2]; 0.1 μM NO·
  Fluorescence: 5,344 and 5,827 and 5,393
[2]; 1 μM NO·
  Fluorescence: 6,268 and 5,961 and 5,430
[2]; 10 μM NO·
  Fluorescence: 6,104 and 6,207 and 5,735
